Measurements as given in patent US12582654B2, “Cyano-substituted pyridine and cyano-substituted pyrimidine compound and preparation method therefor and application thereof” (BEIJING SCITECH-MQ PHARMACEUTICALS LIMITED, priority 2019, dated 2026).

Key:
[1] = target: FGFR4 V550L kinase (Homo sapiens, UniProt P22455, V550L); assay: Inhibition of FGFR4 V550L mutant kinase activity (ULight-labeled PolyGT, EU665/EU615 reading); format: biochemical; settings: FGFR4 V550L kinase 1 nM, ATP 10 μM, enzymatic reaction 2 hours
Sequence of FGFR4 V550L kinase (P22455 22-802 V550L): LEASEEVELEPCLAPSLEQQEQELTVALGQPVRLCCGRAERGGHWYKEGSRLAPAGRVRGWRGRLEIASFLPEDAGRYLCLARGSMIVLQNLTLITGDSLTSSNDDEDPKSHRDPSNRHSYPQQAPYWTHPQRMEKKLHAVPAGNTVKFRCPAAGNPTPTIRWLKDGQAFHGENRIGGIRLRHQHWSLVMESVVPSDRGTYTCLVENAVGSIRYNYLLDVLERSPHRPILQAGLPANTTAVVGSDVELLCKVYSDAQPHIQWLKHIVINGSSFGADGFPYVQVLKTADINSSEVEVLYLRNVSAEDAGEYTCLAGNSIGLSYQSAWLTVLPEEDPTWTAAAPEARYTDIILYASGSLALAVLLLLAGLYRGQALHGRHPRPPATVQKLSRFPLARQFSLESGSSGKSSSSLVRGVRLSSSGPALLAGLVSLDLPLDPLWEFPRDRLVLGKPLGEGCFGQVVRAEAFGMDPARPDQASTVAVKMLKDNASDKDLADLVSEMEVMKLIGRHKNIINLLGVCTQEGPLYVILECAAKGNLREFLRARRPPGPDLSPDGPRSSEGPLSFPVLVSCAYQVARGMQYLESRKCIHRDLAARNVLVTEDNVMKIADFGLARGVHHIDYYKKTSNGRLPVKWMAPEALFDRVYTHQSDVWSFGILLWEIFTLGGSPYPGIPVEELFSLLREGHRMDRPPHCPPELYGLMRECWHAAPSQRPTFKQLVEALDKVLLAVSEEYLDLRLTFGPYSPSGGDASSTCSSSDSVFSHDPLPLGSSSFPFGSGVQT
Outline: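 TR-FRET kinase assay: 1 nM FGFR4 V550L, 10 μM ATP, 100 nM ULight-PolyGT substrate, 2 h at room temperature after 5 min compound–enzyme preincubation, 1% DMSO. Compound tested as 11-point 3-fold dilution from 2.5 μM to 0.042 nM final. Signal as EU665/EU615 ratio; IC50 fitted from % inhibition.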

[2] = target: T1, Ba/F3 ETV6-FGFR4-V550L cells (Homo sapiens, UniProt P22455, V550L, cells depend on it); assay: Inhibition of cell proliferation (CCK-8), Ba/F3 ETV6-FGFR4-V550L cells; format: cell-based; settings: 72 hours of incubation, read-out: Ba/F3 ETV6-FGFR4-V550L IC50
T1 construct: fused on or other part: N-terminal part of ETV6 (TEL), the oligomerising partner of the fusion; already named as the first entry; P41212 (Transcription factor ETV6)
T1 sequence (P22455 whole entry V550L, the tested form may be a part): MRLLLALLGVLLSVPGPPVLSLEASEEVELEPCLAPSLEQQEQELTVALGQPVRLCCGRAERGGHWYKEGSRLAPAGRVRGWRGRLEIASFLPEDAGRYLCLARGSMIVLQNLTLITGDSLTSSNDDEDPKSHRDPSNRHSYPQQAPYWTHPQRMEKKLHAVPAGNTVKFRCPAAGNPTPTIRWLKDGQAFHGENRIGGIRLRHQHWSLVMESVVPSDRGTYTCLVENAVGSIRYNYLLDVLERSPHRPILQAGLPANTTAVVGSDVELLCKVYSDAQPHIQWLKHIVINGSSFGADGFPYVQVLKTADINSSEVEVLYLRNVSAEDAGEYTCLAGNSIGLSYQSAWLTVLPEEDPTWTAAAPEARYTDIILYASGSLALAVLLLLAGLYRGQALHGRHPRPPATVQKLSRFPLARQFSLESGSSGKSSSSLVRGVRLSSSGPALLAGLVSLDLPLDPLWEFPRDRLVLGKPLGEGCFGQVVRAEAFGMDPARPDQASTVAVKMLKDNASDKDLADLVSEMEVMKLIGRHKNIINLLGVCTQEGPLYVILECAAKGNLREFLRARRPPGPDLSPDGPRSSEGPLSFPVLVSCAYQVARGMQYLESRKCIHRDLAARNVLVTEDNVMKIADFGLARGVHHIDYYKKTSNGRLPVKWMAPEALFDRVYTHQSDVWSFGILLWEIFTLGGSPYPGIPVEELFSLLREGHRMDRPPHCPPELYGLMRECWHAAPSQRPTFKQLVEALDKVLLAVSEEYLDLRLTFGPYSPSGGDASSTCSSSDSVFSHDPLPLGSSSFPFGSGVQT
Outline: (§1)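 Ba/F3 cells expressing ETV6-FGFR4 or ETV6-FGFR4-V550L exposed for 72 h to 9 concentrations from 4-fold serial dilution (0.25% DMSO final). Viability by CCK-8, OD 450 nm after 1–2 h at 37 °C, relative to untreated and cell-free blanks; IC50 from curve fitting.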

[3] = target: FGFR4 kinase (Homo sapiens, UniProt P22455); assay: Inhibition of FGFR4 kinase activity (ULight-labeled JAK-1 peptide, EU665/EU615 reading); format: biochemical; settings: FGFR4 kinase 3.85 nM, ATP 100 μM, enzymatic reaction 2 hours
Sequence of FGFR4 kinase (P22455 22-802): as the sequence (P22455 22-802 V550L) above, with L529V counted along it
Outline: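 TR-FRET kinase assay using 3.85 nM FGFR4, 100 μM ATP and 100 nM ULight-JAK-1 (Tyr1023) peptide; 5 min enzyme–compound preincubation, then 2 h at room temperature. Compounds at 11 3-fold dilutions from 2.5 μM down to 0.042 nM, 1% DMSO. IC50 from EU665/EU615 ratio inhibition curves.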

[4] = target: T2, Ba/F3 ETV6-FGFR4 cells (Homo sapiens, UniProt P22455); assay: Inhibition of cell proliferation (CCK-8), Ba/F3 ETV6-FGFR4 cells; format: cell-based; settings: 72 hours of incubation, read-out: Ba/F3 ETV6-FGFR4 IC50
T2 construct: fused on or other part: N-terminal part of ETV6 (TEL), the oligomerising partner that makes the FGFR4 kinase constitutively active; P41212 (Transcription factor ETV6)
T2 sequence (P22455 whole entry, change not shown, the tested form may be a part): as the sequence (P22455 whole entry V550L, the tested form may be a part) above, with L550V counted along it
Outline: as §1

| IC50 [1] | GI50 [2] | IC50 [3] | GI50 [4] | Structure (SMILES) |
| --- | --- | --- | --- | --- |
| ≤ 10 nM | ≤ 10 nM | 10 to 50 nM | ≤ 10 nM | C=CC(=O)Nc1cc(N2CCC(N3CCN(CCO)CC3)CC2)ccc1Nc1ncc(C#N)c(Nc2ccccc2OC(C)C)n1 [Example 59, N-(2-((5-cyano-4-((2-isopropoxyphenyl)amino)pyrimidin-2-yl)amino)-5-(4-(4-(2-hydroxyethyl)piperazin-1-yl)piperidin-1-yl)phenyl) acrylamide] |
| ≤ 10 nM | ≤ 10 nM | 10 to 50 nM | ≤ 10 nM | C=CC(=O)Nc1cc(N2CCC(N(C)CCO)CC2)ccc1Nc1ncc(C#N)c(Nc2ccccc2OC(C)C)n1 [Example 60, N-(2-((5-cyano-4-((2-isopropoxyphenyl)amino)pyrimidin-2-yl)amino)-5-(4-((2-hydroxyethyl) (methyl)amino)piperidin-1-yl)phenyl) acrylamide] |
| ≤ 10 nM | ≤ 10 nM | 10 to 50 nM | ≤ 10 nM | C=CC(=O)Nc1cc(N2CCC(N(C)CCF)CC2)ccc1Nc1ncc(C#N)c(Nc2ccccc2OC(C)C)n1 [Example 61, N-(2-((5-cyano-4-((2-isopropoxyphenyl)amino)pyrimidin-2-yl)amino)-5-(4-((2-fluoroethyl) (methyl)amino)piperidin-1-yl)phenyl) acrylamide] |
| 10 to 50 nM | ≤ 10 nM | 10 to 50 nM | ≤ 10 nM | C=CC(=O)Nc1cc(N2CCC(N(C)C3CCC3)CC2)ccc1Nc1ncc(C#N)c(Nc2ccccc2OC(C)C)n1 [Example 62, N-(2-((5-cyano-4-((2-isopropoxyphenyl)amino)pyrimidin-2-yl)amino)-5-(4-(cyclobutyl(methyl)amino)piperidin-1-yl)phenyl) acrylamide] |
| 10 to 50 nM | ≤ 10 nM | ≤ 10 nM | ≤ 10 nM | C=CC(=O)Nc1cc(N2CCC(N(C)C3CC3)CC2)ccc1Nc1ncc(C#N)c(Nc2ccccc2OC(C)C)n1 [Example 63, N-(2-((5-cyano-4-((2-isopropoxyphenyl)amino)pyrimidin-2-yl)amino)-5-(4-(cyclopropyl (methyl)amino)piperidin-1-yl)phenyl) acrylamide] |
| 10 to 50 nM | ≤ 10 nM | 10 to 50 nM | ≤ 10 nM | C=CC(=O)Nc1cc(N2CCC(N3CCC(F)CC3)CC2)ccc1Nc1ncc(C#N)c(Nc2ccccc2OC(C)C)n1 [Example 64, N-(2-((5-cyano-4-((2-isopropoxyphenyl)amino)pyrimidin-2-yl)amino)-5-(4-fluoro-[1,4-bipiperidin]-1‘- yl)phenyl) acrylamide] |
| ≤ 10 nM | ≤ 10 nM | 10 to 50 nM | ≤ 10 nM | C=CC(=O)Nc1cc(N2CCC(N3CCC(O)CC3)CC2)ccc1Nc1ncc(C#N)c(Nc2ccccc2OC(C)C)n1 [Example 65, N-(2-((5-cyano-4-((2-isopropoxyphenyl)amino)pyrimidin-2-yl)amino)-5-(4-hydroxy-[1,4-bipiperidin]-1′-yl)phenyl) acrylamide] |
| 10 to 50 nM | ≤ 10 nM | ≤ 10 nM | ≤ 10 nM | C=CC(=O)Nc1cc(N2CCC(N3CCC(C#N)CC3)CC2)ccc1Nc1ncc(C#N)c(Nc2ccccc2OC(C)C)n1 [Example 66, N-(2-((5-cyano-4-((2-isopropoxyphenyl)amino)pyrimidin-2-yl)amino)-5-(4-cyano-[1,4-bipiperidin]-1′-yl)phenyl) acrylamide] |
| ≤ 10 nM | ≤ 10 nM | 10 to 50 nM | ≤ 10 nM | C=CC(=O)Nc1cc(N2CCC(N(C)CC(C)(C)O)CC2)ccc1Nc1ncc(C#N)c(Nc2ccccc2OC(C)C)n1 [Example 67, N-(2-((5-cyano-4-((2-isopropoxyphenyl)amino)pyrimidin-2-yl)amino)-5-(4-((2-hydroxy-2-methylpropyl) (methyl)amino)piperidin-1-yl)phenyl) acrylamide] |
